Experimental data: patent publication US7626027B2, “Substituted 1H-pyrrolo[2,3-c]pyridine-2-carboxamides and related analogs as inhibitors of casein kinase Iε” (Aventis Pharmaceuticals Inc, priority 2003, dated 2009)

Molecular target: T1, casein kinase 1ε (Homo sapiens, UniProt P49674)
T1 construct: made in house
Assay: Casein Kinase Epsilon 33P-ATP Filter Plate Assay
Assay type: biochemical
Conditions: not given
Text: Casein Kinase Epsilon ^33P-ATP Filter Plate Assay for Screening CK1 Inhibitors Purpose: This assay measures the effect of compounds to inhibit the phosphorylation of the substrate casein by the enzyme casein kinase 1ε using an in vitro ^33P-ATP filtration assay.
Equipment: • Beckman Biomek 2000 Liquid Handling Robot • Beckman Multimek 96 Automated 96 Channel Pipettor • Millipore Vacuum Manifold Basic Kit # MAVM0960R • Titertek Multidrop Liquid Dispenser • Packard TopCount NXT Liquid Scintillation Counter
Enzyme: • Casein Kinase 1ε final concentration 0.58 mg/ml obtained from fermentation and purification processes performed by Aventis Pharmaceuticals Inc., France. The above are stored as 100 μL aliquots at minus 80° C.
Compounds: • Compounds for testing are supplied as frozen 10 mM compound stock dissolved in 100% DMSO. Assay Conditions:
Final total assay volume per well is equal to 50 μL made up as follows: • 5 μL of diluted compound stock ([…], 0.1, 0.01 or 0.001 μM), • 5 μL of dephosphorylated casein final concentration 0.2 μg/μL, • 20 μL of CK1ε final concentration 3 ng/μL, and • 20 μL of γ-^33P-ATP final concentration 0.02 μCi/μL mixed with cold ATP (10 μM final). Methodology: • 1. 500 mL of fresh assay buffer is made: 50 mM Tris pH 7.5, 10 mM MgCl2, 2 mM DTT and 1 mM EGTA • 2. Compounds to be evaluated are obtained as 10 μL of 10 mM stock dissolved in 100% DMSO. Using a Biomek 2000 liquid handling robot, serial dilutions are made to yield 10, 1, 0.1, 0.01 and 0.001 μM final compound dilutions added as 5 μL additions to Falcon U bottom plates. […] A routine screening assay will consist of 32 compounds, which equals 4 assay plates. • 3. Assay plate maps are set up according to the following pattern
• 4. […] Finally 20 μL […] (0.02 μCi/μL)/10 μM cold ATP are added (equals approximately 2×10^6 CPM per well). • 6. The Falcon U-Bottom assay plate containing the above 50 μL reaction volume is vortexed and then incubated at room temperature for 2 hours. • 7. At the end of 2 hours, the reaction is stopped by the addition of 65 μL of ice cold 2 mM cold ATP (made up in assay buffer) to the assay plates using a Beckman Multimek • 8. At the same time 25 μL 100% ice cold TCA made up in distilled H2O is added to a matching number of Millipore MAPH filter plates. • 9. Using a handheld 8-channel pipettor, 100 μL of the reaction mixture is transferred from the Falcon U-Bottom Plate to the Millipore MAPH filter plates presoaked with TCA. • 10. The Millipore MAPH filter plates are mixed gently and allowed to sit at room temperature for at least 30 minutes to precipitate the proteins. • 11. After 30 minutes the filter plates are placed on a Millipore vacuum manifold and filtered at no more than 8 mm Hg as the MAPH filters tend to “air lock” at higher vacuum settings. • 12. The filter plates are sequentially washed and filtered with 2×150 μL 20% TCA, 2×150 μL 10% TCA and 2×150 μL 5% TCA (total of 6 washes per plate/900 μL per well). • 13. Plates are allowed to dry overnight at room temperature. The next day 40 μL Packard Microscint-20 Scintillation Fluid is added per well using a Titertek Multidrop dispenser; the plates are sealed and counted for 2 minutes/well in a Packard Topcount NXT Scintillation Counter (CPM values/well are captured). Calculation: • 1. Counts Per Minute (CPM) data is captured and imported into a proprietary data calculation and archiving database (Activity Base by IDBS version 5.0). • 2. Column 1 for each plate reflects total phosphorylation activity of the enzyme in the absence of any inhibiting compound and thus represents 100%. Column 12 reflects any nonspecific phosphorylation/retained radioactivity activity in the absence of inhibiting compound and enzyme.

T1 sequence (P49674 whole entry): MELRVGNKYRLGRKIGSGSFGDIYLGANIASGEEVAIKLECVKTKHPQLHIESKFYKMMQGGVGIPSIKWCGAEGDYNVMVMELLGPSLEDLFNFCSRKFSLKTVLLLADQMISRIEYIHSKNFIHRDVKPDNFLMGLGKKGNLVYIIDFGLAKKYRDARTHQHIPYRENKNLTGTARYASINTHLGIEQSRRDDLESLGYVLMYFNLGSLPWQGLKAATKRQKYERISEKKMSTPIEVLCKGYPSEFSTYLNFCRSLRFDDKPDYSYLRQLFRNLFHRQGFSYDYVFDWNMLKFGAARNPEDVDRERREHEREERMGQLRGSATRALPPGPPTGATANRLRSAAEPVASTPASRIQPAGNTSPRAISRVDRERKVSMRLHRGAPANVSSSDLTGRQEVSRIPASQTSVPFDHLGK

Row | SMILES | IC50 [nM]
1 | NC(=O)c1[nH]c2cccnc2c1Sc1cccc(Cl)c1Cl [Ia-9, 3-(2,3-Dichlorophenylsulfanyl)-1H-pyrrolo[3,2-b]pyridine-2-carboxylic acid amide] | > 10000
2 | NC(=O)c1[nH]c2cccnc2c1Sc1cccc(C(F)(F)F)c1 [Ia-11, 3-(3-Trifluoromethyl-phenylsulfanyl)-1H-pyrrolo[3,2-b]pyridine-2-carboxylic acid, amide] | 709
3 | NC(=O)c1[nH]c2cccnc2c1Sc1cc(Cl)ccc1Cl [Ia-13, 3-(2,5-Dichloro-phenylsulfanyl)-1H-pyrrolo[3,2-b]pyridine-2-carboxylic acid amide] | > 10000
4 | COc1ccccc1Sc1c(C(N)=O)[nH]c2cccnc12 [Ia-14, 3-(2-Methoxy-phenylsulfanyl)-1H-pyrrolo[3,2-b]pyridine-2-carboxylic acid amide] | 669
5 | NC(=O)c1[nH]c2cccnc2c1Sc1cccc(N)c1 [Ia-16, 3-(3-Amino-phenylsulfanyl)-1H-pyrrolo[3,2-b]pyridine-2-carboxylic acid amide] | 424
6 | NC(=O)c1[nH]c2cccnc2c1Sc1ccc([N+](=O)[O-])cc1 [Ia-17, 3-(4-Nitro-phenylsulfanyl)-1H-pyrrolo[3,2-b]pyridine-2-carboxylic acid amide] | 9790
7 | Cc1ccccc1Sc1c(C(N)=O)[nH]c2cccnc12 [Ia-19, 3-o-Tolylsulfanyl-1H-pyrrolo[3,2-b]pyridine-2-carboxylic acid amide] | 140
8 | Cc1cc(C)cc(Sc2c(C(N)=O)[nH]c3cccnc23)c1 [Ia-21, 3-(3,5-Dimethyl-phenylsulfanyl)-1H-pyrrolo[3,2-b]pyridine-2-carboxylic acid amide] | 6880
9 | CCc1ccccc1Sc1c(C(N)=O)[nH]c2cccnc12 [Ia-23, 3-(2-Ethyl-phenylsulfanyl)-1H-pyrrolo[3,2-b]pyridine-2-carboxylic acid amide] | 6480
10 | NC(=O)c1[nH]c2cccnc2c1Sc1cccc(OC(F)(F)F)c1 [Ia-24, 3-(3-Trifluoromethoxy-phenylsulfanyl)-1H-pyrrolo[3,2-b]pyridine-2-carboxylic acid, amide] | 219
11 | NC(=O)c1[nH]c2cccnc2c1Sc1ccccn1 [Ia-26, 3-(Pyridin-2-sulfanyl)-1H-pyrrolo[3,2-b]pyridine-2-carboxylic acid amide] | 190
12 | NC(=O)c1[nH]c2cccnc2c1Sc1ccncc1 [Ia-27, 3-(Pyridin-4-sulfanyl)-1H-pyrrolo[3,2-b]pyridine-2-carboxylic acid amide] | 2980
13 | NC(=O)c1[nH]c2cccnc2c1Sc1cccs1 [Ia-28, 3-(Thiophen-2-ylsulfanyl)-1H-pyrrolo[3,2-b]pyridine-2-carboxylic acid amide] | 53
14 | CNC(=O)c1c(Sc2ccccc2)c2ncccc2n1C [Ia-29, 1-Methyl-3-phenylsulfanyl-1H-pyrrolo[3,2-b]pyridine-2-carboxylic acid methylamide] | > 10000
15 | CNC(=O)c1[nH]c2cccnc2c1Sc1cccc(OC(F)(F)F)c1 [Ia-30] | > 10000
16 | CNC(=O)c1[nH]c2cccnc2c1Sc1cccc(Cl)c1 [Ia-31] | > 10000
17 | CNC(=O)c1[nH]c2cccnc2c1Sc1ccccc1 [Ia-33, 3-Phenylsulfanyl-1H-pyrrolo[3,2-b]pyridine-2-carboxylic acid methylamide] | > 10000

Row | SMILES | IC50 [nM]
18 | Cn1c(C(N)=O)c(Sc2ccccc2)c2ncccc21 [Ia-34, 1-Methyl-3-phenylsulfanyl-1H-pyrrolo[3,2-b]pyridine-2-carboxylic acid amide] | 339
19 | COc1ccc2[nH]c(C(N)=O)c(Sc3cccc(F)c3)c2n1 [Ia-35, 3-(3-Fluoro-phenylsulfanyl)-5-methoxy-1H-pyrrolo[3,2-b]pyridine-2-carboxylic acid amide] | 896
20 | COc1cccc(Sc2c(C(N)=O)[nH]c3ccc(OC)nc23)c1 [Ia-36, 3-(3-Methoxy-phenylsulfanyl)-5-methoxy-1H-pyrrolo[3,2-b]pyridine-2-carboxylic acid amide] | 86
21 | CCCn1c(C(N)=O)c(Sc2ccccc2)c2ncccc21 [Ia-37, 3-Phenylsulfanyl-1-propyl-1H-pyrrolo[3,2-b]pyridine-2-carboxylic acid amide] | 123
22 | NC(=O)c1[nH]c2ccncc2c1Sc1ccccc1 [Ib-1, 3-Phenylsulfanyl-1H-pyrrolo[3,2-c]pyridine-2-carboxylic acid amide] | 1130
23 | NC(=O)c1[nH]c2ccncc2c1Sc1cccc(F)c1 [Ib-2] | 466
24 | NC(=O)c1[nH]c2ccncc2c1Sc1ccc(Cl)cc1 [Ib-3] | 7960
25 | NC(=O)c1[nH]c2cnccc2c1Sc1ccccc1 [Ic-1, 3-Phenylsulfanyl-1H-pyrrolo[2,3-c]pyridine-2-carboxylic acid amide] | 388
26 | NC(=O)c1[nH]c2cnccc2c1S(=O)(=O)c1ccccc1 [Ic-2, 3-Benzenesulfonyl-1H-pyrrolo[2,3-c]pyridine-2-carboxylic acid amide] | > 10000
27 | NC(=O)c1[nH]c2cnccc2c1Sc1cccc(F)c1 [Ic-3, 3-(3-Fluoro-phenylsulfanyl)-1H-pyrrolo[2,3-c]pyridine-2-carboxylic acid amide] | 1840
28 | COc1cccc(Sc2c(C(N)=O)[nH]c3cnccc23)c1 [Ic-4, 3-(3-Methoxy-phenylsulfanyl)-1H-pyrrolo[2,3-c]pyridine-2-carboxylic acid amide] | 397
29 | NC(=O)c1[nH]c2cnccc2c1Sc1cccc(Cl)c1 [Ic-5, 3-(3-Chloro-phenylsulfanyl)-1H-pyrrolo[2,3-c]pyridine-2-carboxylic acid amide] | 375
30 | NC(=O)c1[nH]c2cnccc2c1Sc1ccccc1C(F)(F)F [Ic-6, 3-(2-Trifluoromethyl-phenylsulfanyl)-1H-pyrrolo[2,3-c]pyridine-2-carboxylic acid amide] | 759
31 | NC(=O)c1[nH]c2cnccc2c1Sc1ccccc1OC(F)(F)F [Ic-7, 3-(2-Trifluoromethoxy-phenylsulfanyl)-1H-pyrrolo[2,3-c]pyridine-2-carboxylic acid amide] | 1290
32 | COc1ccccc1Sc1c(C(N)=O)[nH]c2cnccc12 [Ic-8, 3-(2-Methoxy-phenylsulfanyl)-1H-pyrrolo[2,3-c]pyridine-2-carboxylic acid amide] | 442
33 | NC(=O)c1[nH]c2cnccc2c1Sc1ccccn1 [Ic-9, 3-(Pyridin-2-sulfanyl)-1H-pyrrolo[2,3-c]pyridine-2-carboxylic acid amide] | 291

Same assay, conditions: phosphorylation of casein, 10 μM cold ATP, 2 hours room temperature; * denotes average of 2 or more determinations; read-out: Casein Kinase Iε 33P-ATP Filter Plate Assay IC50

Row | SMILES | IC50 [nM]
34 | CNC(=O)c1[nH]c2cccnc2c1Sc1cccc(F)c1 [Ia-32] | > 10000
